Laboratory results reported in US20140315786A1, “USE OF INTRACELLULAR ENZYMES FOR THE RELEASE OF COVALENTLY LINKED BIOACTIVES” (Catabasis Pharmaceuticals, Inc., priority 2011, published 2014).

Key:
[1] = biological target: T1, FAAH-1 (Homo sapiens, UniProt O00519); test: Hydrolysis in homogenate of COS-7 cells overexpressed with FAAH-1; format: biochemical
T1 construct: expressed in transfected cells; host or cells: COS-7
T1 sequence (O00519 1-579): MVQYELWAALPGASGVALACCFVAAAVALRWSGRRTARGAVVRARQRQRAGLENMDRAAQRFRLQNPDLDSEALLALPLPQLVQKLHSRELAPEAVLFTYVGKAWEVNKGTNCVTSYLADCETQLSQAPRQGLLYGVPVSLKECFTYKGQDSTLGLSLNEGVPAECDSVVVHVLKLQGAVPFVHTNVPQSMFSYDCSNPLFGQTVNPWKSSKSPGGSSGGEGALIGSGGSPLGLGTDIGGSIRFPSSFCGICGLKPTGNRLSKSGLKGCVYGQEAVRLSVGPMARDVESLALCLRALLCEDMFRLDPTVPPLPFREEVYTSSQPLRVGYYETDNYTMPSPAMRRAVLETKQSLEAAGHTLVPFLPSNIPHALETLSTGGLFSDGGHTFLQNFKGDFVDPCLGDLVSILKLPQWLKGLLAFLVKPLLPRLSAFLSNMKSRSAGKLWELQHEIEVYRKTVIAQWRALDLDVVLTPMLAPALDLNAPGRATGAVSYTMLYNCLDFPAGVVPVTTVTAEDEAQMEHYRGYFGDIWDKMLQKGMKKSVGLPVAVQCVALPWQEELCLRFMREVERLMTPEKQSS
Description: (§1) Hydrolysis experiments using COS-7 cells overexpressed with either FAAH-1 or FAAH-2. […] The next day, cells were transfected, in duplicate, with 10 μg Vector control, flag-FAAH-1 or flag-FAAH-2 plasmids using Lipofectamine 2000 (Invitrogen) according to the manufacturer's protocol. 24 hours post transfection, cells were washed 1× in cold PBS, aspirated dry, and then scraped off the plate in the presence of 0.6 mL reaction buffer (50 mM HEPES, pH 9.0; 1 mM EDTA). Cells were then homogenated using a VWR VDI 12 Adaptable Homogenizer, on ice for 1 minute, and the sample was then clarified by centrifugation at 6,000 g for 5 minutes. The supernatant of this homogenated fraction was then used for FAAH hydrolysis assays. […] Gel densitometry was performed and the % FAAH extracted in each successive lysis conditions was determined according to standard procedures.
(§2) The following hydrolysis experiments were performed using COS-7 cells containing overexpressed FAAH-1 or FAAH-2. […] Briefly, the hydrolysis experiments were carried out in Eppendorf tubes using procedures similar to the one described above. […] At time=0, 1, and 3 h, the protein was precipitated with acetonitrile.

[2] = tested on: NFκB; test: NFκB-driven luciferase reporter assay in LPS-challenged RAW 264.7 macrophages; format: cell-based; conditions: Mus musculus, RAW264.7; RAW 264.7, LPS 200 ng/mL; linked bioactive; read-out: IC50 in an NFkB assay
Description: RAW 264.7 cells transfected with an NFκB-driven luciferase reporter were plated in 96 well plates. Cells were treated with Vehicle (0.1% ethanol) or test compounds for 2 hours. As a positive control for inhibition of NFκB signaling, 6 wells were treated with […]. Cells were then challenged with 200 ng/mL LPS for 3 hours in the presence of test compounds. A subset of wells treated with vehicle remained unstimulated with LPS to determine the floor signal of the assay. NFκB driven luciferase activity was developed by addition of BriteLite luciferase kit (PERKIN ELMER®) and measured using a Victor V plate reader. NFκB activity (luciferase activity) for each treatment was normalized to Vehicle wells treated with LPS (% NFκB Response).

[3] = tested on: ApoB secretion in HepG2 cells; test: ApoB secretion in HepG2 cells (oleate stimulated, ELISA); format: cell-based; conditions: Homo sapiens, linked bioactive
Description: HcpG2 cells (ATCC) were seeded at 10,000 cells per well in 96 well plates. After adhering overnight, growth media (10% FBS in DMEM) was removed and cells were serum starved for 24 hours in DMEM containing 0.1% fatty acid free bovine serum albumin (BSA, SIGMA®). Cells were then treated with the compounds. Niacin at 5 mM was used as a positive control. All treatments were performed in triplicate. Simultaneous with compound treatment, ApoB secretion was stimulated with the addition of […] complexed to fatty acid free BSA in a 5:1 molar ratio. Incubation with compounds and oleate was conducted for 24 hours. Media supernatants were removed and ApoB concentrations were measured using ELISA kits (MABTECH AB®). Percent inhibition of ApoB secretion was determined by normalizing data to vehicle treated wells. For a given compound, an IC50 (concentration at which 50% of ApoB secretion is inhibited) can also be determined by using a 4 parameter-fit inhibition curve model (GRAPH PAD PRISM®). In each experiment, cell viability was determined using the ATPlite 1-Step kit (PERKIN ELMER®), such that compound effects due to cytotoxicity could be monitored.

[4] = biological target: T2, FAAH-2 (Homo sapiens, UniProt Q6GMR7); test: Hydrolysis in homogenate of COS-7 cells overexpressed with FAAH-2; format: biochemical; conditions: FIG. 9B; 5 μM inhibitor
T2 construct: expressed in transfected cells; host or cells: COS-7
T2 sequence (Q6GMR7 1-532): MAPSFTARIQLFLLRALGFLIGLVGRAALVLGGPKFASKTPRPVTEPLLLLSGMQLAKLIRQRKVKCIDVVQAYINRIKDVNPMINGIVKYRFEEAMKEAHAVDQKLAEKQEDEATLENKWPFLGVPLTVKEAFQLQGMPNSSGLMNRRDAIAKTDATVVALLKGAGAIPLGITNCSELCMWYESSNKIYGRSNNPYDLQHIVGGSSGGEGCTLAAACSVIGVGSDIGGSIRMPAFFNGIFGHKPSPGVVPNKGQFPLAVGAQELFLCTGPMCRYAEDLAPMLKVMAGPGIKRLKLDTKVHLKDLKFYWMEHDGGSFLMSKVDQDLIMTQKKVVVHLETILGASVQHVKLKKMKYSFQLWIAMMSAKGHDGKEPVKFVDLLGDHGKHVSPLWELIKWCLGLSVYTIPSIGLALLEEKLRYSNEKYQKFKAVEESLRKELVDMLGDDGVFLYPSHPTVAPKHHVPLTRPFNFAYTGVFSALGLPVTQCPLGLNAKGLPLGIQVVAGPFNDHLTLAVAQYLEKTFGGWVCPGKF
Description: as §1, §2

[5] = Rat liver lysate hydrolysis assay (FAAH and thiol reductase promoted cleavage); format: in vitro ADME
Description: The rat liver lysate hydrolysis experiment was performed in Eppendorf tubes, by adding the necessary amount of water for the assay first. A 10× buffer solution with final concentrations of HEPES and EDTA of 50 mM and 1 mM respectively was prepared from 500 mM HEPES and 10 mM EDTA in water. Rat liver lysate was removed from −80° C. storage, thawed and centrifuged at 4000 g for 5 min. A volume of the supernatant was transferred to the Eppendorf tube yielding a final concentration in the assay of 3 mg/mL rat liver lysate. The tube was gently inverted to mix the components. The reactions are then place in a 37° C. incubator for 20 min allowing the reaction mixture to reach 37° C. before the reaction was initiated.
To initiate the hydrolysis reaction, the samples were removed from the incubator and the compounds of the invention were added, as a DMSO solution, prepared in a manner to allow for <1% final DMSO concentration and 5 μM final compound concentration. […]
This rat liver lysate hydrolysis assay was used to assess the hydrolysis of bis-fatty acid linked bioactives into individual components. As an illustrative example, the bis-fatty acid cystamine linked bioactive VI-7 was assessed in this rat liver lysate assay. […] The amount of cysteamine that was formed could be quantitated by LC-MS/MS by carrying out an initial derivatization with Ellman's reagent. […] 50 μl of the tissue lysate reaction mixture was transferred to a 1.5 mL eppendorf tube and derivatization of cysteamine was performed with 50 μl 10 mM Ellman's reagent (5,5′ dithio-bis(2-nitrobenzoic acid). Samples were incubated at room temperature for 10 minutes, vortex for 1 minute followed by protein precipitation by addition of 300 μl of acetonitrile containing IS and 0.2% butylated hydroxyanisole (BHA). Supernatant was transferred to a clean LC vial and 10 μl of the sample was injected on LC-MS/MS for the measurement of cysteamine. The concentration of cysteamine was measured by LC-MS/MS. […]

CC/C=C\C/C=C\C/C=C\C/C=C\C/C=C\C/C=C\CCC(=O)NCCNC(=O)c1ccccc1O [Compound I-1, N-(2-(4Z,7Z,10Z,13Z,16Z,19Z)-docosa-4,7,10,13,16,19-hexaenamidoethyl)-2-hydroxybenzamide]
hydrolysis (disappearance of compound) in COS-7 cells overexpressed with FAAH-1 ([1]; FIG. 9A, 5 μM, absence of any inhibitor, 0-3 h): significant hydrolysis
appearance of DHA from compound, FAAH-1 ([1]; FIG. 9C, 5 μM, no inhibitor): time dependent formation of DHA
IC50 [2]: 30 to 35 µM

CC/C=C\C/C=C\C/C=C\C/C=C\C/C=C\CCCC(=O)NCCNC(=O)c1cccnc1 [III-1, N-(2-(5Z,8Z,11Z,14Z,17Z)-icosa-5,8,11,14,17-pentaenamidoethyl)nicotinamide]
IC50 [3]: 50 µM

CC/C=C\C/C=C\C/C=C\C/C=C\C/C=C\C/C=C\CCC(=O)NCCNC(=O)c1cccnc1 [III-2, N-(2-(4Z,7Z,10Z,13Z,16Z,19Z)-docosa-4,7,10,13,16,19-hexaenamidoethyl)nicotinamide]
IC50 [3]: 50 µM

CC/C=C\C/C=C\C/C=C\C/C=C\C/C=C\C/C=C\CCC(=O)NCCNC(=O)/C=C/C(=O)OC [IV-1, (E)-methyl 4-(2-(4Z,7Z,10Z,13Z,16Z,19Z)-docosa-4,7,10,13,16,19-hexaenamidoethylamino)-4-oxobut-2-enoate]
IC50 [2]: 16 µM

O=C(Nc1cccnc1)N1CCC(Cc2cccc(Oc3ccc(C(F)(F)F)cn3)c2)CC1 [PF-3845]
effect of inhibitor on hydrolysis of compound I-1, FAAH-2 [4]: not as effective as URB597
effect of inhibitor on rate of hydrolysis of compound I-1, FAAH-1 ([1]; FIG. 9A, 5 μM inhibitor): significantly reduced
effect of inhibitor on rate of formation of DHA from compound I-1, FAAH-1 ([1]; FIG. 9C, 5 μM inhibitor): significantly inhibited
effect of FAAH inhibitor on formation of cysteamine from compound VI-7 in rat liver lysate ([5]; FIG. 7B, presence of inhibitor): essentially no increase in cysteamine

CC/C=C\C/C=C\C/C=C\C/C=C\C/C=C\C/C=C\CCC(=O)N1CCN(C(=O)CCC/C=C\C/C=C\C/C=C\C/C=C\C/C=C\CC)CC1 [VI-1, (4Z,7Z,10Z,13Z,16Z,19Z)-1-[4-((5Z,8Z,11Z,14Z,17Z)-icosa-5,8,11,14,17-pentaenoyl)-piperazin-1-yl]-docosa-4,7,10,13,16,19-hexaen-1-one]
IC50 [3]: 10 µM

CC/C=C\C/C=C\C/C=C\C/C=C\C/C=C\C/C=C\CCC(=O)NCCNC(=O)CCC/C=C\C/C=C\C/C=C\C/C=C\C/C=C\CC [VI-5, (4Z,7Z,10Z,13Z,16Z,19Z)-docosa-4,7,10,13,16,19-hexaenoic acid [2-((5Z,8Z,11Z,14Z,17Z)-icosa-5,8,11,14,17-pentaenoylamino)-ethyl]-amide]
IC50 [2]: 63 µM

CC/C=C\C/C=C\C/C=C\C/C=C\C/C=C\C/C=C\CCC(=O)NCCNC(=O)CC/C=C\C/C=C\C/C=C\C/C=C\C/C=C\C/C=C\CC [VI-6, (4Z,7Z,10Z,13Z,16Z,19Z)-docosa-4,7,10,13,16,19-hexaenoic acid [2-((4Z,7Z,10Z,13Z,16Z,19Z)-docosa-4,7,10,13,16,19-hexaenoylamino)-ethyl]-amide]
IC50 [2]: 68 µM

CC/C=C\C/C=C\C/C=C\C/C=C\C/C=C\C/C=C\CCC(=O)NCCSSCCNC(=O)CCC/C=C\C/C=C\C/C=C\C/C=C\C/C=C\CC [VI-7, (4Z,7Z,10Z,13Z,16Z,19Z)-docosa-4,7,10,13,16,19-hexaenoic acid {2-[2-((5Z,8Z,11Z,14Z,17Z)-icosa-5,8,11,14,17-pentaenoylamino)-ethyldisulfanyl]-ethyl}-amide]
hydrolysis in rat liver lysate ([5]; FIG. 7A, 5 μM compound, 3 mg/mL rat liver lysate, 37° C.): time-dependent hydrolysis
formation of cysteamine in rat liver lysate ([5]; FIG. 7B, absence of the FAAH inhibitor PF-3845): time dependent formation of cysteamine
